{
  "source": "paper PMC6957260",
  "about": "(European journal of medicinal chemistry, 2013)",
  "key": {"rat TRPV1 [1]": {"molecular_target": "T1, rat TRPV1 (Rattus norvegicus, UniProt O35433)", "T1 sequence (O35433 whole entry)": "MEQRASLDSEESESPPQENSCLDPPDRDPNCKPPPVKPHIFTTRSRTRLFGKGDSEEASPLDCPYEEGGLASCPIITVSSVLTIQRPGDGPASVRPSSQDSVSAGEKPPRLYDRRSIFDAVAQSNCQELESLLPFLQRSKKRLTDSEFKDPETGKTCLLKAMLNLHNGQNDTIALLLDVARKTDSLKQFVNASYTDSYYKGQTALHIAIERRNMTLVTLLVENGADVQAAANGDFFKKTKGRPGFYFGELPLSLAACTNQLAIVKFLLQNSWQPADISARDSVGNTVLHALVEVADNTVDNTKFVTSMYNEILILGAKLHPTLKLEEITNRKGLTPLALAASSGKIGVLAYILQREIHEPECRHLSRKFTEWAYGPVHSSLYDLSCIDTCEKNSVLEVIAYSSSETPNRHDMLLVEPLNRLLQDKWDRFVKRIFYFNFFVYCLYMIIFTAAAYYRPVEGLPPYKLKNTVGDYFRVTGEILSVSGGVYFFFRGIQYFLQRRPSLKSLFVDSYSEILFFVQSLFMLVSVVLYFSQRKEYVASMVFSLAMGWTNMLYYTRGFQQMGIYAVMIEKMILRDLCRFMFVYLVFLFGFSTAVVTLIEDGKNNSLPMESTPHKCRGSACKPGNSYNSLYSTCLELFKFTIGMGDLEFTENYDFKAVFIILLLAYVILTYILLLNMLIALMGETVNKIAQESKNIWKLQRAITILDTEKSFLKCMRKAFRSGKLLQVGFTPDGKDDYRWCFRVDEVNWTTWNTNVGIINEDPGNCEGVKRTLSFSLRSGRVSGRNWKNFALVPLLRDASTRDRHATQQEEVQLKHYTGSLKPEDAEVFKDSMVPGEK", "settings": "cited from earlier work"}, "hTRPV1": {"system": "hTRPV1", "settings": "hTRPV1 in HEK-293 cells, cited from earlier work; for EC50: read-out: agonism EC50"}, "rat TRPV1 [2]": {"molecular_target": "T1, rat TRPV1", "assay": "functional 45Ca2+ uptake assay, agonism, rat TRPV1 in CHO cells", "type": "cell-based", "settings": "for fold less potency for agonism compared to the parent compound: rat TRPV1, parents 2 and 3, respectively"}, "human TRPV1": {"molecular_target": "human TRPV1 (Homo sapiens, UniProt Q8NER1)", "sequence (Q8NER1 whole entry)": "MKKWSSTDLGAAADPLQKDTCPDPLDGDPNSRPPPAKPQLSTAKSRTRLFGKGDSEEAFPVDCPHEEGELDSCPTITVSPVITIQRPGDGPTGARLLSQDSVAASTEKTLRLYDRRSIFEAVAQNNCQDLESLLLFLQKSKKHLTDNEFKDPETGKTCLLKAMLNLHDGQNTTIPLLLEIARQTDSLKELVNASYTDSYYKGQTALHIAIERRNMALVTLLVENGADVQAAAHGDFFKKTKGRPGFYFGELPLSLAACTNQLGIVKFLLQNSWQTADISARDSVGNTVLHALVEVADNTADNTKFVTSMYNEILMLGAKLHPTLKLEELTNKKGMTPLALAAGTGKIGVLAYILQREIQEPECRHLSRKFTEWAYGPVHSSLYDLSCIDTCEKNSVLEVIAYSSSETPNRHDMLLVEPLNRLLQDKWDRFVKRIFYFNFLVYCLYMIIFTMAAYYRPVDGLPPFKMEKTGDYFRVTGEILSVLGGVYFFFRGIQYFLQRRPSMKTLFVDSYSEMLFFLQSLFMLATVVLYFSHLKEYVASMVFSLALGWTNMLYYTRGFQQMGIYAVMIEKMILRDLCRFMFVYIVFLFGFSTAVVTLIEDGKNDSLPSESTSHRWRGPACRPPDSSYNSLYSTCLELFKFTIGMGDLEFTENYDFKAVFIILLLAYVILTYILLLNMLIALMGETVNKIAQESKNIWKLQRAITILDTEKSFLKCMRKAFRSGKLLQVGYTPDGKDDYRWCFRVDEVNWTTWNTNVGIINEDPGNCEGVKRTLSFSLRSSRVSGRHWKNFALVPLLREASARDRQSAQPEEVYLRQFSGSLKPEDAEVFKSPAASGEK", "type": "cell-based"}, "rat TRPV1 [3]": {"molecular_target": "T1, rat TRPV1", "assay": "competitive binding assay with [3H]RTX, rat TRPV1 in CHO cells", "settings": "parents 2 and 3, respectively"}, "rat TRPV1 [4]": {"molecular_target": "T1, rat TRPV1", "type": "cell-based"}},
  "data": [
    {"smiles": "C=C(C)[C@@]12C[C@@H](C)C34OC(Cc5ccccc5)(OC1[C@@H]3C=C(COC(=O)Cc1cc(Br)c(N)c(OC)c1)C[C@]1(O)C(=O)C(C)=C[C@@H]41)O2", "note": "(some centres unmarked) [5-bromo-4-amino RTX]", "values": [
      {"measurement": "fold more potent than 5′-iodo RTX (antagonism)", "setting": "rat TRPV1 [1]", "value": 4.5, "unit": "fold"}
    ]},
    {"smiles": "C=C(C)[C@]12C[C@@H](C)[C@@]34O[C@](Cc5ccccc5)(O[C@@H]1[C@@H]3C=C(COC(=O)Cc1ccc(O)c(OC)c1)C[C@]1(O)C(=O)C(C)=C[C@@H]41)O2", "note": "[Compound 1, Resiniferatoxin, reference compound]", "values": [
      {"measurement": "EC50", "setting": "hTRPV1", "value": 0.019, "unit": "nM"}
    ]},
    {"smiles": "C=C(C)[C@]12C[C@@H](C)[C@@]34O[C@](Cc5ccccc5)(O[C@@H]1[C@@H]3C=C(COC(=O)Oc1cc(F)c(O)c(OC)c1)C[C@]1(O)C(=O)C(C)=C[C@@H]41)O2", "note": "[Compound 57]", "values": [
      {"measurement": "fold less potent than RTX (functional activity, agonism)", "setting": "rat TRPV1 [2]; rTRPV1", "value": "ca. 5 fold"}
    ]},
    {"smiles": "C=C(C)[C@]12C[C@@H](C)[C@@]34O[C@](Cc5ccccc5)(O[C@@H]1[C@@H]3C=C(COC(=O)Oc1cc(Cl)c(O)c(OC)c1)C[C@]1(O)C(=O)C(C)=C[C@@H]41)O2", "note": "[Compound 58]", "values": [
      {"measurement": "mean % of agonism relative to capsaicin", "setting": "rat TRPV1 [2]", "value": "a The mean % of agonism relative to capsaicin: 13% for 58, 89% for 63, 83% for 64."},
      {"measurement": "mean % of agonism relative to capsaicin", "setting": "human TRPV1", "value": "a The mean % of agonism relative to capsaicin: 52% for 58, 90% for 64."}
    ]},
    {"smiles": "C=C(C)[C@]12C[C@@H](C)[C@@]34O[C@](Cc5ccccc5)(O[C@@H]1[C@@H]3C=C(COC(=O)Oc1cc(I)c(O)c(OC)c1)C[C@]1(O)C(=O)C(C)=C[C@@H]41)O2", "note": "[Compound 60]", "values": [
      {"measurement": "fold more potent than RTX (agonism)", "setting": "hTRPV1", "value": "ca. 4 fold"},
      {"measurement": "EC50", "setting": "hTRPV1", "value": 0.0047, "unit": "nM"}
    ]},
    {"smiles": "C=C(C)[C@]12C[C@@H](C)[C@@]34O[C@](Cc5ccccc5)(O[C@@H]1[C@@H]3C=C(COC(=O)Oc1ccc(N)c(OC)c1)C[C@]1(O)C(=O)C(C)=C[C@@H]41)O2", "note": "[Compound 62]", "values": [
      {"measurement": "fold less potency for agonism compared to the parent compound", "setting": "rat TRPV1 [2]", "value": 4, "unit": "fold"},
      {"measurement": "fold less potency in binding affinity compared to the parent compound", "setting": "rat TRPV1 [3]", "value": 4.5, "unit": "fold"}
    ]},
    {"smiles": "C=C(C)[C@]12C[C@@H](C)[C@@]34O[C@](Cc5ccccc5)(O[C@@H]1[C@@H]3C=C(COC(=O)Oc1ccc(NS(C)(=O)=O)c(OC)c1)C[C@]1(O)C(=O)C(C)=C[C@@H]41)O2", "note": "[Compound 63]", "values": [
      {"measurement": "fold less potency for agonism compared to the parent compound", "setting": "rat TRPV1 [2]", "value": 40, "unit": "fold"},
      {"measurement": "fold less potency in binding affinity compared to the parent compound", "setting": "rat TRPV1 [3]", "value": 5.5, "unit": "fold"}
    ]},
    {"smiles": "C=C(C)[C@]12C[C@@H](C)[C@@]34O[C@](Cc5ccccc5)(O[C@@H]1[C@@H]3C=C(COC(=O)Oc1cc(F)c(N)c(OC)c1)C[C@]1(O)C(=O)C(C)=C[C@@H]41)O2", "note": "[Compound 64]", "values": [
      {"measurement": "mean % of agonism relative to capsaicin", "setting": "human TRPV1", "value": "a The mean % of agonism relative to capsaicin: 52% for 58, 90% for 64."}
    ]},
    {"smiles": "C=C(C)[C@]12C[C@@H](C)[C@@]34O[C@](Cc5ccccc5)(O[C@@H]1[C@@H]3C=C(COC(=O)Oc1cc(Cl)c(N)c(OC)c1)C[C@]1(O)C(=O)C(C)=C[C@@H]41)O2", "note": "[Compound 65]", "values": [
      {"measurement": "fold more potent than I-RTX (antagonism)", "setting": "rat TRPV1 [4]", "value": "ca. 5 fold"}
    ]},
    {"smiles": "C=C(C)[C@]12C[C@@H](C)[C@@]34O[C@](Cc5ccccc5)(O[C@@H]1[C@@H]3C=C(COC(=O)Oc1cc(Br)c(N)c(OC)c1)C[C@]1(O)C(=O)C(C)=C[C@@H]41)O2", "note": "[Compound 66]", "values": [
      {"measurement": "fold more potent than I-RTX (antagonism)", "setting": "rat TRPV1 [4]", "value": "ca. 5 fold"}
    ]}
  ]
}
